Experimental findings from patent US20250223303A1, “TRICYCLIC BORONIC ACID DERIVATIVE, AND PREPARATION METHOD THEREFOR AND APPLICATION THEREOF” (priority 2021, published 2025) are described below.

Each structure is given as a SMILES string. pIC50: −log10 of the molar value.

For assay [1], the system named is Escherichia coli ARLG 2829. Put plainly: MIC test of compounds in combination with antibiotics, Escherichia coli ARLG 2829. Particulars: Escherichia coli, ARLG2829.
Experimental: (§15) Strain preparation: the strains to be tested were streaked from glycerol tube at −80° C. onto Mueller Hinton II Agar plates. The plates were then placed in a 37° C. incubator and cultured for 18-24 hours.
(§16) Media preparation: CAMHB (Mueller Hinton II Broth): 22 g of powder was dissolved in 1 L of purified water and sterilized at 121° C. for 10 min for use. Saline: 8.5 g NaCl was dissolved in 1 L of pure water and sterilized at 121° C. for 30 min for use.
(§17) Preparation of compound and antibiotic stock solutions: the compound and antibiotic were dissolved in DMSO or water to 12.8 mg/mL.
(§18) 2-Fold gradient dilution of antibiotics: 300 μL of CAMHVIB medium was added to columns 2-12 of a 96-deep well plate. In column 1, 24 μL of antibiotic stock solution and 576 µL of CAMHB medium were added and mixed well, with a concentration of 512 μg/mL. 300 µL of antibiotic solution was transferred from the column 1 to the second column and mixed well. The process was repeated until column 11, and the column 12 was a blank control.
(§19) Dilution of combined compounds: the compound was diluted 400-fold to 32 μg/ml with CAMHB medium.
(§20) Working solution aliquoting: 25 μL of antibiotics was aliquoted into the 96-U bottom plate with a pipette, and 25 μL of combined compound was added to each well. If antibiotics were used alone, 25 μL of CAMHB medium was added.
(§21) Inoculum solution preparation: 5-6 single colonies were selected from the plate and suspended in normal saline. The bacterial suspension was adjusted to 0.2 (i.e., 0.5 McFarland turbidity, with a bacterial concentration was about 1 to 2×10^8 CFU/mL) with a turbidity meter. The bacterial suspension was diluted 100-fold with CAMHB medium for later use.
(§22) Inoculation: 50 μL of inoculum solution was transferred to the above 50 μL compound plate with a pipette.
(§23) Culture: The 96-U bottom plate was placed in an incubator at 37° C. for 18 to 20 h.
(§24) After the incubation, bacterial growth was visually observed, and the test plate was photographed and recorded.
For assay [2], the system named is Klebsiella pneumoniae ARLG 1196. Put plainly: MIC test of compounds in combination with antibiotics, Klebsiella pneumoniae ARLG 1196. The note with it: Klebsiella pneumoniae, ARLG1196.
Experimental: as §15, §16, §17, §18, §19, §20, §21, §22, §23, §24
Assay [3] deals with Klebsiella pneumoniae ATCC BAA-2470. Put plainly: MIC test of compounds in combination with antibiotics, Klebsiella pneumoniae ATCC BAA-2470. The note with it: Klebsiella pneumoniae, ATCCBAA2470.
The test system of assay [4] is Klebsiella pneumoniae ATCC BAA-1705. Put plainly: MIC test of compounds in combination with antibiotics, Klebsiella pneumoniae ATCC BAA-1705. The note with it: Klebsiella pneumoniae, ATCCBAA1705.
The test system of assay [5] is Acinetobacter baumannii WX-AB005. Nature of the assay: MIC test of compounds in combination with antibiotics, Acinetobacter baumannii WX-AB005. Particulars: Acinetobacter baumannii, WXAB005.
Experimental: as §18, §19, §20, §21, §22, §23
The subject of assay [6] is Acinetobacter baumannii WX-AB013. Nature of the assay: MIC test of compounds in combination with antibiotics, Acinetobacter baumannii WX-AB013. The note with it: Acinetobacter baumannii, WXAB013.
Experimental: as §18, §19, §20, §21, §22, §23
For assay [7], the system named is Acinetobacter baumannii ARLG-1791 OXA-23. Put plainly: MIC test of compounds in combination with antibiotics, Acinetobacter baumannii ARLG-1791. Particulars: Acinetobacter baumannii, ARLG1791OXA23.
Experimental: as §18, §19, §20, §21, §22, §23
The subject of assay [8] is Acinetobacter baumannii ARLG-1809 OXA-23. Nature of the assay: MIC test of compounds in combination with antibiotics, Acinetobacter baumannii ARLG-1809. Particulars: Acinetobacter baumannii, ARLG1809OXA23.
Experimental: as §18, §19, §20, §21, §22, §23
Assay [9] concerns Acinetobacter baumannii ARLG-1852 OXA-23. Put plainly: MIC test of compounds in combination with antibiotics, Acinetobacter baumannii ARLG-1852. Particulars: Acinetobacter baumannii, ARLG1852OXA23.
Experimental: as §18, §19, §20, §21, §22, §23
Assay [10] concerns Acinetobacter baumannii ARLG-1853 OXA-23. Nature of the assay: MIC test of compounds in combination with antibiotics, Acinetobacter baumannii ARLG-1853. The note with it: Acinetobacter baumannii, ARLG1853OXA23.
Experimental: as §18, §19, §20, §21, §22, §23
In the next assay the target is T1, NDM-1 (Klebsiella pneumoniae, UniProt C7C422).
T1 construct: purchased GenScript Biotech Co., Ltd
T1 sequence (C7C422 29-270 limits assumed): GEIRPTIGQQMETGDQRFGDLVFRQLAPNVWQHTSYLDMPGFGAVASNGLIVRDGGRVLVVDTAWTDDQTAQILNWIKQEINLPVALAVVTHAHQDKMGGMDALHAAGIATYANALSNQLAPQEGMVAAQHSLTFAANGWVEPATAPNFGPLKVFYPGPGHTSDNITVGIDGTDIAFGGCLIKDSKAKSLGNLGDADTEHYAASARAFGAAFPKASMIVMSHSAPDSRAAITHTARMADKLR
Put plainly: Enzyme activity test (FC5 fluorescent substrate), NDM-1. Type of assay: biochemical. The note with it: enzyme 6 pM, substrate FC5 15 μM, MBL buffer. The procedure:
(§1) Compound stock solution: the compound was prepared as a 50 mM DMSO stock solution. […] After aliquoting, the compound stock solutions were stored at −20° C.
(§2) Preparation and storage of antibiotic substrate stock solution: antibiotic fluorescent substrate FC5 was synthesized internally and prepared as a 2 mM stock solution, which was stored at −20° C. after aliquoting.
(§3) Storage of β-lactamases: each […] was synthesized by GenScript Biotech Co., Ltd., and stored at −80° C. after aliquoting to avoid repeated freezing and thawing.
(§4) Preparation of enzyme activity reaction buffer: SBL buffer: PBS pH 7.4, 0.01% (v/v) Triton X-100; MBL buffer: 50 Mm HEPES in PBS pH 7.2, 1 μM ZnSO4, 1 μg/mL BSA, 0.010% v/v Triton X-100
(§5) a) The compound to be tested and buffer were taken out and warmed to room temperature.
(§6) b) Each compound was diluted with DMSO and buffer to the initial experimental concentration (Table 2), and then the compound was diluted 3-fold for a total of 10 concentrations.
(§7) c) Diluted compounds were added to wells 1 to 20 of a 384-well black plate at 2 replicate wells per concentration, 5 μL per well. 5 µL of DMSO was added to wells 21 to 24.
(§8) d) Each enzyme was diluted to the experimental concentration (Table 2) in SBL and MBL buffers, and finally 35 μL/well was added, with a total of 22 wells. 35 μL buffer was added to wells 23 to 24. Wells 21 to well 22 served as the maximum test values (Max), while wells 23 to 24 were designated as the minimum test values (Min).
(§9) e) The 384-well plate was centrifuged quickly and incubated for 10 minutes at room temperature.
(§10) f) The antibiotic substrate FC5 was diluted in buffer to the experimental concentration of each enzyme (Table 2).
(§11) g) The incubated 384-well plate was taken out and FC-5 was added to wells […]. The 384-well plate was centrifuged rapidly and promptly transferred to a microplate reader for reading.
(§12) h) The fluorescence intensity was measured at 355 nm excitation light/460 nm emission light in the microplate reader, and the fluorescence intensity was measured every three minutes for a total of 10 measurements.
(§13) Initial velocity of enzyme reaction V: Subtract the background reading (Min wells) without enzyme from each fluorescence intensity reading, and then perform on a linear regression analysis on each compound concentration group. The slope is the initial velocity of enzyme reaction (V) at each compound concentration.
(§14) Dose-effect curve and IC50 calculation of compounds: The initial velocity of enzyme reaction under the effect of each concentration of compounds was subjected to nonlinear regression fitting. The IC50 (half-maximal inhibitory concentration) of each compound was calculated using the formula […] (Vi: the initial velocity of enzyme reaction at each compound concentration; V0: initial velocity of enzyme reaction without the compound (Max wells). The software used was Graphpad prism 8.

For the next assay, the target named is NDM-5 (Klebsiella pneumoniae, UniProt C7C422, M154L/V88L). Nature of the assay: Enzyme activity test (FC5 fluorescent substrate), NDM-5. Type of assay: biochemical. The procedure:
as §1, §2, §3, §4, §5, §6, §7, §8
e) The 384-well plate was centrifuged quickly and incubated for 10 minutes at room temperature. […]
as §11, §12
Initial velocity of enzyme reaction V: Subtract the background reading (Min wells) without enzyme from each fluorescence intensity reading, and then perform on a linear regression analysis on each compound concentration group. […]
as §14

For the next assay, the target named is T2, IMP-1 (Serratia marcescens, UniProt P52699).
T2 construct: purchased GenScript Biotech Co., Ltd
T2 sequence (P52699 19-246 limits assumed): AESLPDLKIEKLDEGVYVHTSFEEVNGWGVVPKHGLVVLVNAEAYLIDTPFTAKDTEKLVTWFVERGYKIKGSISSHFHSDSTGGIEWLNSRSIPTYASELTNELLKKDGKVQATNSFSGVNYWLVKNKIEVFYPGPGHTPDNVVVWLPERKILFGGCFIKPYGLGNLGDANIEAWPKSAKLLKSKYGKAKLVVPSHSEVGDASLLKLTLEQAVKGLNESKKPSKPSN
Put plainly: Enzyme activity test (FC5 fluorescent substrate), IMP-1. Type of assay: biochemical. The note with it: enzyme 20 pM, substrate FC5 15 μM. The procedure:
as §1, §2, §3, §4, §5, §6, §7, §8, §9, §10, §11, §12, §13, §14

Another assay concerns the target T3, VIM-1 (Pseudomonas aeruginosa, UniProt A0A0F7KYQ8).
T3 construct: purchased GenScript Biotech Co., Ltd
Nature of the assay: Enzyme activity test (FC5 fluorescent substrate), VIM-1. Format: biochemical. Particulars: enzyme 70 pM, substrate FC5 10 μM. The protocol: as §1, §2, §3, §4, §5, §6, §7, §8, §9, §10, §11, §12, §13, §14

The target in another assay is T4, VIM-2 (Escherichia coli, UniProt Q5U7L7).
T4 construct: purchased GenScript Biotech Co., Ltd
Nature of the assay: Enzyme activity test (FC5 fluorescent substrate), VIM-2. Format: biochemical. The note with it: enzyme 25 pM, substrate FC5 20 μM. The protocol:
as §1, §2, §3, §4, §5, §6, §7, §8, §9, §10, §11, §12, §13, §14

The target in another assay is T5, KPC-2 (Klebsiella pneumoniae, UniProt Q9F663).
T5 construct: purchased GenScript Biotech Co., Ltd
T5 sequence (Q9F663 25-293 limits assumed): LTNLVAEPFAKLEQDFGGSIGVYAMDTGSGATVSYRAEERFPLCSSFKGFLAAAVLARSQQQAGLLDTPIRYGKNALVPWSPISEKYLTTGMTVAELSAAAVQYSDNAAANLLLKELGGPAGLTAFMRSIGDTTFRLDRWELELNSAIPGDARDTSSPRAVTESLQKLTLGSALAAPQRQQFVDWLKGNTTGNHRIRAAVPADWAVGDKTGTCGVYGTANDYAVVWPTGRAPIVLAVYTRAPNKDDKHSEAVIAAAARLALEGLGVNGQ
Put plainly: Enzyme activity test (FC5 fluorescent substrate), KPC-2. Type of assay: biochemical. Particulars: enzyme 45 pM, substrate FC5 25 μM. The procedure:
as §1, §2, §3, §4, §5, §6, §7, §8, §9, §10, §11, §12, §13, §14

The next assay concerns the target T6, CTX-M-15 (Escherichia coli, UniProt Q9EXV5).
T6 construct: purchased GenScript Biotech Co., Ltd
Nature of the assay: Enzyme activity test (FC5 fluorescent substrate), CTX-M-15. Format: biochemical. The note with it: enzyme 45 pM, substrate FC5 50 μM. The procedure: as §1, §2, §3, §4, §5, §6, §7, §8, §9, §10, §11, §12, §13, §14

Another assay concerns the target Ampc (UniProt P24735). Put plainly: Enzyme activity test (FC5 fluorescent substrate), AmpC. Type of assay: biochemical. The note with it: enzyme 25 pM, substrate FC5 15 μM. The protocol: as §1, §2, §3, §4, §5, §6, §7, §8, §9, §10, §11, §12, §13, §14
A further assay has as its target T7, OXA-10 (Pseudomonas aeruginosa, UniProt P14489).
T7 construct: purchased GenScript Biotech Co., Ltd
Put plainly: Enzyme activity test (FC5 fluorescent substrate), OXA-10. Format: biochemical. Particulars: enzyme 350 pM, substrate FC5 50 μM. The protocol: as §1, §2, §3, §4, §5, §6, §7, §8, §9, §10, §11, §12, §13, §14

The next assay concerns the target T8, OXA-48 (Klebsiella pneumoniae, UniProt Q6XEC0).
T8 construct: purchased GenScript Biotech Co., Ltd
Nature of the assay: Enzyme activity test (FC5 fluorescent substrate), OXA-48. Type of assay: biochemical. Particulars: enzyme 650 pM, substrate FC5 125 μM. The protocol: as §1, §2, §3, §4, §5, §6, §7, §8, §9, §10, §11, §12, §13, §14

Another assay addresses T9, OXA-23 (Acinetobacter baumannii, UniProt Q9L4P2).
T9 construct: purchased GenScript Biotech Co., Ltd
Nature of the assay: Enzyme activity test (FC5 fluorescent substrate), OXA-23. Format: biochemical. Particulars: enzyme 650 pM, substrate FC5 50 μM. The protocol:
as §1, §2, §3, §4, §5, §6, §7, §8, §9, §10, §11, §12, §13, §14

T8 sequence (Q6XEC0 23-265 limits assumed): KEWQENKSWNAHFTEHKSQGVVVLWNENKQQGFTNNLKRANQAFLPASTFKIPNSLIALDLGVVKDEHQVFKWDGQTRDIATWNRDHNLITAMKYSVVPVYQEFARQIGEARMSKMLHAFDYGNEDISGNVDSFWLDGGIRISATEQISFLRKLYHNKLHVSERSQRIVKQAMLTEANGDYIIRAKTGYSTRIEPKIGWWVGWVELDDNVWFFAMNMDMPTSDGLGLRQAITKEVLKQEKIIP
T9 sequence (Q9L4P2 18-273): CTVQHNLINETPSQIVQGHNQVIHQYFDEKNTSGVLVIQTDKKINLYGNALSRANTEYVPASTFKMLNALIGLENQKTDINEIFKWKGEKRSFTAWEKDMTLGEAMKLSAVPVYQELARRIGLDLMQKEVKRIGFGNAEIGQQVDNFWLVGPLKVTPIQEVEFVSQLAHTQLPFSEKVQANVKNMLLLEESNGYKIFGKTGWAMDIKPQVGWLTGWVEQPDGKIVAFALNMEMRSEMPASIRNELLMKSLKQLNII
T6 sequence (Q9EXV5 entry or part of it): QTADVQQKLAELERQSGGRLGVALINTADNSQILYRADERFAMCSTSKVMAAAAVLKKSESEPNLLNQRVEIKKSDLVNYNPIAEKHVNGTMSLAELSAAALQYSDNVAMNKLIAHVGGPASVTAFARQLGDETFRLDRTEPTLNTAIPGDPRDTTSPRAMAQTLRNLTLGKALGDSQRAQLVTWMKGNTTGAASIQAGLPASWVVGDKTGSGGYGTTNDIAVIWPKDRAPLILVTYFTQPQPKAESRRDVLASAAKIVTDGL
T7 sequence (P14489 20-266): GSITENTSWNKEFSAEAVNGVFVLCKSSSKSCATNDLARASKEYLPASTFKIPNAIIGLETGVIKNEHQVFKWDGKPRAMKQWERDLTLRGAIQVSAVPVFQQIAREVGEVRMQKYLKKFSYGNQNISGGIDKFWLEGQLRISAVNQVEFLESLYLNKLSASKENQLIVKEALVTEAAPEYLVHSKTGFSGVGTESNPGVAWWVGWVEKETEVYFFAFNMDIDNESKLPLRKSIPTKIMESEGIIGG
Sequence of NDM-5 (C7C422 29-270 V88L/M154L): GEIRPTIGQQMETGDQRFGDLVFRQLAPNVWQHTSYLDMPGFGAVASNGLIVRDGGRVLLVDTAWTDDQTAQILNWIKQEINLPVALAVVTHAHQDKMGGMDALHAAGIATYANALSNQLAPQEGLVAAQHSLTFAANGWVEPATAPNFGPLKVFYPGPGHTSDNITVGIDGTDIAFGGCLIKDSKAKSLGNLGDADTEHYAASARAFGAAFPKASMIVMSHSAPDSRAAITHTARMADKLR

For `C[C@@H](O)[C@H]1C(=O)N2C(C(=O)[O-])=C(SC3Cn4cnc[n+]4C3)[C@H](C)[C@H]12` (some centres unmarked) [Biapenem, biapenem], the MIC in assay [1] is 16 µg/mL; in assay [2], 8 µg/mL; in [3], 4 µg/mL; in assay [4], 32 µg/mL; in [5] it was 32 µg/mL; in [6], 64 µg/mL. Besides, the minimum inhibitory concentration (MIC) worked out at 16 µg/mL in [7], 32 µg/mL in [8], 32 µg/mL in assay [9] and 32 µg/mL in [10].
In the case of `CN1CC(CCSc2ccc3c(c2C(=O)O)OB(O)[C@@H]2C[C@H]32)C1` [Compound 24-a], the pIC50 is 7.71 on NDM-1; 7.83 against NDM-5; over 8.29 against IMP-1; 8.11 at VIM-1; 8.22 against VIM-2; 8.47 on KPC-2. In addition, the pIC50 on CTX-M-15 is 8.51; against Ampc it was 7.20; against OXA-10, 7.40; against OXA-48, 9.00; at OXA-23, 8.85.
Consider `CC(C)Sc1ccc2c(c1C(=O)O)OB(O)[C@@H]1C[C@H]21` [Compound 2], for which the pIC50 against NDM-1 is 8.80; against NDM-5, 8.54; against IMP-1, over 8.29; against VIM-1 it was 10.00; against VIM-2 it was 10.00; on KPC-2, 8.48. Also, the pIC50 against CTX-M-15 is 8.49; against Ampc, 7.37; against OXA-10 it was 8.17; against OXA-48 it was 9.40; on OXA-23, 9.22.

A word on the MIC: it is the lowest concentration found to suppress growth. Broadly, the pIC50 is the IC50 on a negative log10 scale, so that one unit is a factor of ten. Low values mean a high IC50, high ones a low IC50.
